Each structure is given as a SMILES string.

This is an account of results in ChEMBL document CHEMBL1150952, “Isolation, identification, and biological activity of isopersin, a new compound from avocado idioblast oil cells” (1998).

The test system of assay [1] is Spodoptera exigua. Nature of the assay: Insecticidal activity against early instar Spodoptera exigua assessed as larval weight at 500 ug/g after 7 days by artificial diet bioassay. The format is functional.
For assay [2], the system named is Spodoptera exigua. Nature of the assay: Insecticidal activity against early instar Spodoptera exigua assessed as mortality at 500 ug/g after 7 days by artificial diet bioassay relative to control. The format is functional.

In the case of `CCCCC/C=C\C/C=C\CCCCCCCC(=O)CC(CO)OC(C)=O` (stereo not drawn) [ISOPERSIN], the Activity in assay [1] stood at 26.45 mg; in assay [2], 12%.

For the compound `CCCCC/C=C\C/C=C\CCCCCCCC(=O)C[C@@H](O)COC(C)=O`, in assay [2], the Activity was 80%.
